Where two headings read alike, the source gives them in different places.
Key:
[1] = molecular target: T1, HTLV-1 integrase (Human T-cell leukemia virus 1, UniProt P03362); assay: In vitro HTLV-1 integrase strand transfer assay (concerted integration, agarose gel densitometry); assay type: biochemical; details: for Inhibition of enzymatic activity Hill slope: dose-response fit of strand transfer inhibition
T1 construct: Full-length wild type HTLV-1 IN was recombinantly expressed, purified, and characterized; SUMO (pET28a-SUMO fusion) (N); made in house
T1 sequence (P03362 1168-1462): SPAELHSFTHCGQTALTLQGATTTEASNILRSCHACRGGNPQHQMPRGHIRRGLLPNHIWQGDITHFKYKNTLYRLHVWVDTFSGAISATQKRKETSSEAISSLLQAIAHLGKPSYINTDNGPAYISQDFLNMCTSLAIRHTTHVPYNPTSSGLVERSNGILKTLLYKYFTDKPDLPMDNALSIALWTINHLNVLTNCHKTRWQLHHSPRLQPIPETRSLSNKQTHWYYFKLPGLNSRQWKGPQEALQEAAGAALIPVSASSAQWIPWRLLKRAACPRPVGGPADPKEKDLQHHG
Procedure: Donor DNA mimicking the U5 3′-processed LTR ends of the viral DNA copy was prepared by annealing oligonucleotides (Supplementary Table S1), in 100 mM Tris pH 7.4, 400 mM NaCl. The optimized conditions for the strand transfer reactions are as follows: a solution was prepared containing 73 mM PIPES pH 6.0, 175 mM NaCl, 16.7 mM MgCl2, 5.8 μM ZnCl2, 12.8 mM DTT, 0.53 μM donor DNA, and 0.8 μM HTLV-1 integrase. Following a 30 min room temperature incubation in the presence or absence of INSTIs in the final concentration of 5% DMSO, the reaction was initiated by addition of 300 ng of pGEM-9Zf(−) supercoiled plasmid DNA. The total volume of each reaction was 150 μL. Reactions were carried out at 37°C for 30 min and were processed as described previously ([Maertens et al., 2010]). All reactions were performed in these conditions unless otherwise stated in the Figure legend. Reactions that included B′γ were done with equimolar ratio of IN to B′γ. The precipitated DNA was resuspended in agarose loading dye and analyzed on a 1.5% agarose gel run in 1× TAE buffer and stained with ethidium bromide. Bands corresponding to products of concerted integration were quantified by densitometry in ImageLab 4.1 (Bio-Rad). All experiments were done in triplicate.
Quantified data points were fitted to a dose-response curve in Prism 7. Cumulative standard deviation for each drug was calculated as an average of the upper limit and lower limit values: […]

[2] = tested on: HIV-1; details: read-out: HIV-1 antiviral activity EC50, cited from earlier work
[3] = tested on: HTLV-1; assay: HTLV-1 infection of Jurkat cells by cell-to-cell transmission (co-culture with irradiated MT-2), proviral load by qPCR; assay type: cell-based, Human T-cell lymphotropic virus type 1; details: for EC50: read-out: Antiviral activity EC50 (HTLV-1)
Procedure: (§1) Jurkat cells were pre-treated with increasing amounts of INSTI (0.2 pM–2 μM in DMSO), or the carrier (DMSO) for 24 h. MT-2 cells were resuspended to a concentration of 2 × 10^6 cells/mL and exposed to a sub-lethal dose of gamma-irradiation (40,000 Rad). Cells were resuspended in serum-free RPMI to a concentration of 2 × 10^6 cells/mL in the presence of drug, and 0.5 × 10^6 of each cell type were co-cultured for 18 h. Following co-culture, cells were washed in PBS and resuspended in 1 mL of depletion buffer (0.1% FBS, 2 mM EGTA, PBS) before gentle tumbling (1 h, 4°C) with 25 μL of anti-CD25 + magnetic beads (DynaBeads, Thermo Fisher Scientific) to deplete MT-2 cells. Following depletion, the unbound fraction, i.e., Jurkat cells were maintained in RPMI with the drug present for 16 days before genomic DNA harvest (DNeasy kit, Qiagen). All experiments were done in triplicate. Depletion of MT-2 cells was verified by FACS. For cellular toxicity measurements, Jurkat cells were grown in the presence of the INSTIs as described above. Viability was measured by live dead stain (Hoechst 33258) and analyzed by FACS.
Proviral load (PVL) was estimated as previously described ([Manivannan et al., 2016]; [Rowan et al., 2016]). Genomic DNA concentrations were measured by nanospectroscopy (DeNovix), and samples were diluted to 5 ng/μL for real-time PCR (qPCR) analysis. qPCR reactions were performed for both the HTLV-1 tax gene and the human GAPDH gene (Supplementary Table S2). Gene copy numbers were determined by comparison to standard curves generated from a clone with a known single integration site (clone 11.50, courtesy of Prof. Charles Bangham). PVL was calculated by comparison of tax and GAPDH copy numbers as a fraction, multiplied by 100 to generate a percentile value assuming a single copy of tax and two copies of GAPDH per infected cell ([Lairmore et al., 1989]). Alu-PCR was performed as described previously ([Alais et al., 2015]), with the modification that the nested PCR was also run as a qPCR using SYBR-green (primers used are shown in Supplementary Table S2). Integrated provirus copy numbers were normalized to GAPDH, and DMSO treated HTLV-1 infected Jurkat cells were arbitrarily set to 100%. Averages and standard deviations of three independent experiments are shown. P-values were calculated using the student’s t-test.

[4] = Cellular toxicity in Jurkat cells (live dead stain Hoechst 33258, FACS); assay type: cell-based; details: human
Procedure: as §1, with “MT-2” for “Jurkat cells were pre-treated with increasing amounts of INSTI (0.2 pM–2 μM in DMSO), or the carrier (DMSO) for 24 h. MT-2”

[5] = tested on: HTLV-1; design: method as in Pasquier et al., 2018; details: ref Pasquier et al., 2018, cited from earlier work
[6] = HTLV-1 IN 0.8 μM, concerted integration product
[7] = HTLV-1 IN 0.8 μM, concerted integration product, triplicate, read-out: Inhibition of enzymatic activity IC50
[8] = Jurkat cells co-cultured with irradiated MT-2, PVL 16 days post-infection
[9] = Primate T-lymphotropic virus 1, Jurkat, light or radiation study, 384 h, Jurkat cells co-cultured with irradiated MT-2, PVL 16 days post-infection

Row | SMILES | Inhibition of enzymatic activity IC95 [1, 6] [nM] | IC50 [1, 7] [nM] | Inhibition of enzymatic activity Hill slope [1] | Antiviral activity EC95 (HTLV-1) [3, 8] [nM] | EC50 ([2]; ref a) [nM] | also measured
1 | Cn1c(N2CCCCS2(=O)=O)nc(C(=O)NCc2ccc(F)cc2)c(O)c1=O [BMS-707035] | 12200 ± 2900 | 350 ± 74 | 0.83 |  |  | EC50 ([2]; ref c): 2.5 nM
2 | O=C(NCc1c(F)cc(F)cc1F)c1cn2c(c(O)c1=O)C(=O)N1[C@H]3CC[C@H](C3)O[C@@H]1C2 [Bictegravir, bictegravir] | 2090 ± 437 | 180 ± 29 | 1.2 | 31.8 ± 18.2 | 1.6 ± 0.4 | fold higher activity than raltegravir or elvitegravir, respectively ([3]; HTLV-1 cell-to-cell infection model, versus raltegravir or elvitegravir): 20–30 fold; EC50 [3, 8]: 0.302 ± 0.173 nM; EC50 [3, 9]: 0.3 ± 0.17 nM; more potent than TDF in blocking HTLV-1 infection ([3]; versus TDF): ~60; activity relative to elvitegravir ([1]; in vitro assays, versus elvitegravir): ~55%; CC50 [4]: > 20000 nM
3 | C[C@@H]1CCO[C@H]2Cn3cc(C(=O)NCc4ccc(F)cc4F)c(=O)c(O)c3C(=O)N12 [Dolutegravir, dolutegravir] | 3020 ± 485 | 260 ± 59 | 1.2 |  | 1.4 ± 0.3 | 
4 | COc1cc2c(cc1Cc1cccc(Cl)c1F)c(=O)c(C(=O)O)cn2[C@H](CO)C(C)C [Elvitegravir, elvitegravir] | 1900 ± 304 |  | 1.0 | 1270 ± 735 |  | EC50 [3, 9]: 9.57 ± 5.54 nM; IC50 [1]: 100 ± 16 nM; CC50 [4]: > 20000 nM
5 | Cc1nnc(C(=O)NC(C)(C)c2nc(C(=O)NCc3ccc(F)cc3)c(O)c(=O)n2C)o1 [Raltegravir, raltegravir] | 29920 ± 5750 |  | 0.73 | 1020 ± 675 | 9.4 ± 1.4 | EC50 ([3]; Primate T-lymphotropic virus 1, Jurkat, light or radiation study, 384 h): 6.42 ± 4.24 nM; IC50 [1]: 530 ± 102 nM; CC50 ([4]; Jurkat cells, read-out: CC50): > 20000 nM
6 | CC(C)OC(=O)OCOP(=O)(CO[C@H](C)Cn1cnc2c(N)ncnc21)OCOC(=O)OC(C)C.O=C(O)/C=C/C(=O)O [TDF, tenofovir disproxil fumarate] |  |  |  |  |  | HTLV-1 infection blocked ([5]; at concentrations of 10 μM): about 50%; EC50 [3, 8]: 17.8 ± 7.16 nM
7 | Cc1cn([C@H]2C[C@H](N=[N+]=[N-])[C@@H](CO)O2)c(=O)[nH]c1=O [zidovudine] |  |  |  |  |  | inhibition of HTLV-1 infection ([5]; at 50 μM concentration): 10–20%

From paper PMC6705210, “Inhibition of HTLV-1 Infection by HIV-1 First- and Second-Generation Integrase Strand Transfer Inhibitors” (Frontiers in Microbiology, 2019)
